US20110151025A1, “Compositions Comprising N-Halogenated or N,N-Dihalogenated Amine for Treatment and Prophylaxis of Bronchopulmonary Infections” (NOVABAY PHARMACEUTICALS, INC., priority 2008, published 2011)
Entries after “also recorded” stand apart in the source; their conditions may differ. Where two headings read alike, the source gives them in different places.

Columns and labels:
[1] = transtympanal injection of 0.1%, 1%, and 10% NCT, mice; cited from earlier work
external otitis = conditions: human external otitis; cited from earlier work
viral bronchitis = test: Inhalation of 1% NCT by human volunteers suffering from viral bronchitis; format: in vivo
[2] = chronic rhinosinusitis, pilot study; cited from earlier work
[3] = 1% aqueous NCT solution, rabbit eyes; cited from earlier work
[4] = 1% aqueous NCT solution, human eyes; cited from earlier work
[5] = test system: infectious conjunctivitis; conditions: in vivo; cited from earlier work
Staphylococcus aureus = conditions: local administration, mouse model; cited from earlier work
[6] = Tolerability of inhaled haloamines in anesthetized pig model; conditions: for Arterial partial pressure of oxygen (PaO2) compared to controls: 4 inhalations of 5 mL, hourly over 4 hours; for Heart rate compared to controls: 4 hours measurement
Description: A study was designed to evaluate the tolerability of inhalative haloamines in a pig model. NCT was used as a representative haloamine. Anesthetized pigs inhaled test solutions of 1% NCT (n=7), 5% NCT (n=6), or 1% NCT plus 1% ammonium chloride (n=6), and 0.9% saline solution as a control (n=7), respectively. Applications were performed every hour over a four-hour time period, i.e., four inhalations in total, with 5 mL each.
Anesthetized pigs inhaled test solutions of 1% NCT (n=7), 5% NCT (n=6), or 1% NCT plus 1% ammonium chloride (n=6), and 0.9% saline solution as a control (n=7), respectively. Applications were performed every hour over a four-hour period, i.e., 4 inhalations in total, with 5 mL each.
Anesthetized pigs inhaled test solutions of 1% NCT (n=7), 5% NCT (n=6), or 1% NCT plus 1% ammonium chloride (n=6), and 0.9% saline solution as a control (n=7), respectively. Applications were performed every hour within four hours, i.e., 4 inhalations in total, with 5 mL each.
Anesthetized pigs inhaled test solutions of 1% NCT (n=7), 5% NCT (n=6), or 1% NCT plus 1% ammonium chloride (n=6), and 0.9% saline solution as a control (n=7), respectively. Applications were performed every hour over a four-hour period of time, i.e., 4 inhalations in total, with 5 mL each.

[7] = Intraperitoneal injection in Swiss mice; format: in vivo; conditions: 1% NCT
Source text: NCT is relatively safe and well-tolerated by mammals. For example, as a mild oxidant, tolerability of 1% aqueous NCT solution by human and animal tissue is good.

[8] = test system: omniresistant Pseudomonas aeruginosa; conditions: NCT irrigations, three patients; cited from earlier work
all classes of pathogens = conditions: cited from earlier work
[9] = purulent coated crural ulcers; cited from earlier work
[10] = test system: proinflammatory cytokines; conditions: cited from earlier work

In the case of `O=S(=O)(O)CCNCl` [NCT, N-chlorotaurine], the “Damage of the inner ear” value [1] is listed as “did not cause damage of the inner ear”, the “Efficacy versus standard medication” value (external otitis) is listed as “more effective than a standard medication” and the “Symptoms experienced by patients” value (viral bronchitis; 5 mL of 1% NCT inhaled for 10 minutes 3 times daily for three days) is listed as “easier breathing, less coughing and less expectoration”. The “Side effects (symptoms for bronchoconstriction, cough, dyspnea)” value (viral bronchitis; 5 mL of 1% NCT inhaled for 10 minutes 3 times daily for three days, three volunteers) was “no side effects detectable”, the “Development of bronchitis after pharyngitis” value (viral bronchitis; one patient, NCT used as a treatment for pharyngitis) was “did not develop bronchitis” and the Tolerability [2] was “good tolerability”. The Tolerability [3] was “good”, the Tolerability [4] was “good” and the “Efficacy in infectious conjunctivitis” value [5] was “data indicating efficacy”. The “Inhibition of septic arthritis” value (Staphylococcus aureus) was “inhibited septic arthritis”, the “Pulmonary artery pressure compared to saline group” value ([6]; 1% NCT) was “tended to result in even better values” and the “Alveolo-arterial difference of oxygen partial pressure (AaDO2)” value ([6]; 1% NCT, 4-hour measurement, controls 33.7±9.03, p=0.016) was 21.0±13.09. The “Arterial partial pressure of oxygen (PaO2) compared to controls” value ([6]; 1% NCT) was “No difference in PaO2 to controls”, the “Heart rate compared to controls” value ([6]; 1% NCT) was “not significantly different from controls” and the “Tolerability in the bronchopulmonary system upon inhalation” value ([6]; 1% NCT, conclusion from pig and volunteer results) was “very well tolerated”. For the same compound, the “Pulmonary artery pressure compared to controls” value ([6]; 5% NCT) was “became higher than in the control group; also recorded: significantly higher values”, the Tolerability upon inhalation ([6]; 5% NCT) was “very well tolerated” and the “Alveolo-arterial difference of oxygen partial pressure (AaDO2) compared to the controls” value ([6]; 5% NCT (p=0.99)) was “not different”. For the same compound, the “Arterial partial pressure of oxygen (PaO2) compared to controls” value ([6]; 5% NCT) was “No difference in PaO2 to controls”, the “Heart rate compared to controls” value ([6]; 5% NCT) was “not significantly different from controls” and the Tolerated intraperitoneal dose [7] was “tolerated up to one mL 1% NCT”. The “Eradication of bacteria from the urinary bladder” value [8] was “possible to eradicate bacteria”, the Antimicrobial spectrum (all classes of pathogens) was “broad-spectrum antimicrobial activity” and the “Induction of resistance of pathogens” value (all classes of pathogens) was “resistance of pathogens is not induced”. The “Pain versus chloramine T” value [9] was “significantly less pain”, the “Toxicity versus chloramine T” value [9] was “less toxic than chloramine T” and the “Effect on proinflammatory cytokines” value [10] was “down-regulate proinflammatory cytokines”.
